These results are taken from ChEMBL document CHEMBL1150359, “Identification of non-lipid LPA3 antagonists by virtual screening” (Bioorg Med Chem, 2008).

pEC50, pIC50, pKi: −log10 of the molar value. Active and inactive are the calls of the source. The calls are words filed in the database; no cut-off is given here. Peptide text beside a SMILES is read from it. * marks the point of attachment. Dnp = O=[N+]([O-])c1ccc(*)c([N+](=O)[O-])c1

In experiment [1] the target is T1, Lysophosphatidic acid receptor 3 (Homo sapiens) (UniProt Q9UBY5).
T1 sequence (whole entry): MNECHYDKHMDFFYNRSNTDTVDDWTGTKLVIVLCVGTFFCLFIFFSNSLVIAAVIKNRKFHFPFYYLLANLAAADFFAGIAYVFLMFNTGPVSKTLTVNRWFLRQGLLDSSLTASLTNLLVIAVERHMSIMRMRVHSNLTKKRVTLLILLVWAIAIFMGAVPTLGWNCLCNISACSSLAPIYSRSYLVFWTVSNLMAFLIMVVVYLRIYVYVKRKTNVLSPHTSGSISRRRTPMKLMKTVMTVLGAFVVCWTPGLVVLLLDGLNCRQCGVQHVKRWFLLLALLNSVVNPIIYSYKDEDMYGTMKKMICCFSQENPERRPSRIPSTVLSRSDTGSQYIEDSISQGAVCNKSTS
As to the kind of experiment: Activity at LPA3 receptor expressed in rat RH7777 cells assessed as inhibition of LPA-induced intracellular calcium concentration at 30 uM. Type of experiment: functional, cell-based. On the technique in general: Calcium assays in cells follow changes in intracellular calcium, usually with a dye or a luminescent sensor.

Experiment [2] addresses T2, Lysophosphatidic acid receptor 1 (Homo sapiens, UniProt Q92633). As to the kind of experiment: Activity at LPA1 receptor expressed in rat RH7777 cells assessed as inhibition of LPA-induced intracellular calcium concentration at 30 uM. The class given is functional, cell-based.
Experiment [3] concerns the target T3, Lysophosphatidic acid receptor 3 (Homo sapiens, UniProt Q9UBY5).
T3 sequence (Q9UBY5 whole entry): T1 sequence (whole entry)
As to the kind of experiment: Inhibition of LPA3 receptor.

Experiment [4] has as its target T1, Lysophosphatidic acid receptor 3 (Homo sapiens). As to the kind of experiment: Activity at LPA3 receptor expressed in rat RH7777 cells assessed as potentiation of LPA-induced intracellular calcium concentration. The class given is functional, cell-based.
For experiment [5], the target named is T3, Lysophosphatidic acid receptor 3. As to the kind of experiment: (§1) Antagonist activity at LPA3 receptor expressed in rat RH7777 cells assessed as inhibition of LPA-induced intracellular calcium concentration. The class given is functional, cell-based.
For experiment [6], the target named is T4, Lysophosphatidic acid receptor 2 (Homo sapiens, UniProt Q9HBW0). As to the kind of experiment: Antagonist activity at LPA2 receptor expressed in rat RH7777 cells assessed as inhibition of LPA-induced intracellular calcium concentration. The class given is functional, cell-based.
T4 sequence (Q9HBW0 whole entry): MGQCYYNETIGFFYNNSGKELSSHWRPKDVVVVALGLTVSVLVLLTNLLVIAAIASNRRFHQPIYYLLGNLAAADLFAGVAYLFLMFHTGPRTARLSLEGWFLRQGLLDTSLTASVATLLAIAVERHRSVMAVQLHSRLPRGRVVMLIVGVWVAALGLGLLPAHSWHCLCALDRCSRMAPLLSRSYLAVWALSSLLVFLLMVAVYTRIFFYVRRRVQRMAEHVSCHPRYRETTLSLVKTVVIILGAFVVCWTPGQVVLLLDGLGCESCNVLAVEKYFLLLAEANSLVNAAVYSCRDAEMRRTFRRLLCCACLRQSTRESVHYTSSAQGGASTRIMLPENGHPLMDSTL
Experiment [7] concerns the target T1, Lysophosphatidic acid receptor 3 (Homo sapiens). The description is as §1. Type of experiment: functional, cell-based.
The target of experiment [8] is T2, Lysophosphatidic acid receptor 1. As to the kind of experiment: Antagonist activity at LPA1 receptor expressed in rat RH7777 cells assessed as inhibition of LPA-induced intracellular calcium concentration. Type of experiment: functional, cell-based.
Experiment [9] deals with T3, Lysophosphatidic acid receptor 3. As to the kind of experiment: Agonist activity at LPA3 receptor expressed in rat RH7777 cells assessed as LPA-induced intracellular calcium response. The class given is functional, cell-based.
The target in experiment [10] is T4, Lysophosphatidic acid receptor 2. As to the kind of experiment: Activity at LPA2 receptor expressed in rat RH7777 cells assessed as inhibition of LPA-induced intracellular calcium concentration at 30 uM. The class given is functional, cell-based.
For experiment [11] the target is unchanged. As to the kind of experiment: Agonist activity at LPA2 receptor expressed in rat RH7777 cells assessed as LPA-induced intracellular calcium response. The class given is functional, cell-based.
The target of experiment [12] is T2, Lysophosphatidic acid receptor 1. As to the kind of experiment: Agonist activity at LPA1 receptor expressed in rat RH7777 cells assessed as LPA-induced intracellular calcium response. The class given is functional, cell-based.

T2 sequence (Q92633 whole entry): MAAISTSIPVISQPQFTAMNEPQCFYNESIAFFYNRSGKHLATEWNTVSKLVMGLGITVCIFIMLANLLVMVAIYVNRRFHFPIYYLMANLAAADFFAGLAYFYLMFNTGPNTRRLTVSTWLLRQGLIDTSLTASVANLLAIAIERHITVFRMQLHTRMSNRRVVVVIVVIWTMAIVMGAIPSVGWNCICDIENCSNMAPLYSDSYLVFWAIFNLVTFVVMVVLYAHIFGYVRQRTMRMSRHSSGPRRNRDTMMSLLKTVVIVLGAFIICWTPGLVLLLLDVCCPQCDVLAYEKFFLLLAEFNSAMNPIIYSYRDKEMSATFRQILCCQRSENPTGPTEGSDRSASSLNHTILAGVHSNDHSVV

Regarding `O=C(O)/C=C\C(=O)Nc1cccc(NC(=O)Cc2ccccc2)c1`, the figures for the Imax in [1] and in experiment [2] were 16% and 52.2%, respectively.

As usually defined, the pIC50 is the IC50 on a negative log10 scale, so that one unit is a factor of ten. As for `CCCCCCC(=O)OC[C@H](COP(O)(O)=S)OC(=O)CCCCCC`, the pIC50 in experiment [3] was 6.74.

Consider `O=P(O)(O)OC[C@H]1O[C@@H](n2cnc3c(NCc4ccccc4)ncnc32)[C@H](O)[C@@H]1O`, for which, in experiment [4], the outcome was Active.

In general, pKi refers to −log10 of the Ki, conventionally taken in molar units. As to `O=C(O)/C=C/C(=O)Nc1ccc(-c2ccc(NC(=O)/C=C/C(=O)O)cc2)cc1`, the pIC50 was 4.86 in experiment [5] and 7.55 in experiment [6]. Moreover, the negative-log Ki (pKi) was 5.15 in experiment [5] and 7.68 in [6]. The Imax in experiment [2] came to 59%.

In the case of `NCC(=O)N[C@@H](CSc1ccc([N+](=O)[O-])cc1[N+](=O)[O-])C(=O)N[C@@H](CCC(=O)O)C(=O)O` (H-Gly-Cys(Dnp)-Glu-OH), the negative logarithm of the IC50 (pIC50) in experiment [5] was 7.62. Also, the Imax in experiment [7] came out at 69.8%.

In experiment [3], `CCCCCCC(=O)OC[C@H](COP(=O)(O)O)OC(=O)CCCCCC` showed a pIC50 of 6.84.

With `O=C(O)/C=C/C(=O)Nc1cccc(NC(=O)/C=C/C(=O)O)c1C(=O)O`, the Imax in experiment [7] was 81.7%; in [6] it was 53.3%.

Consider `O=C(O)/C=C/C(=O)Nc1cccc(NC(=O)/C=C/C(=O)O)c1`, for which, in experiment [6], the pIC50 was 7.66 and the pKi was 7.68. Moreover, in experiment [8], the pIC50 was 6.66 and the negative logarithm of the Ki (pKi) was 7.30.

For orientation: pEC50 means the negative decadic logarithm of the EC50, by convention in mol/L. As usually defined, the Emax is the size of the effect at its maximum, as opposed to the concentration needed. For the compound `CCOC(=O)c1ccc(/C=C/c2ccc(S(=O)(=O)O)cc2)cc1`, the negative-log EC50 (pEC50) in experiment [9] was less than 4.93; in experiment [11] it was less than 4.94; in experiment [12], less than 4.91. The values for the Emax in experiment [1], in experiment [10] and in [8] were 214%, 113% and 180%, respectively.

Turning to `O=C(O)/C=C\C(=O)Nc1cccc(NC(=O)c2ccccc2)c1`, the Imax in [10] stood at 46%. In addition, in [5], the pIC50 was 6.46 and the negative logarithm of the Ki (pKi) was 6.50. For the same compound, the Imax in experiment [2] stood at 34.6%.

Turning to `Nc1ccc(C(=O)Nc2ccc(C(=O)Nc3ccc4c(O)cc(S(=O)(=O)O)cc4c3)cc2)cc1`, the figures for the Imax in [7], in experiment [6] and in experiment [8] were 53.7%, 88% and 59.3%, respectively. Further, the results for the pIC50 in [6] and in [8] were less than 5.03 and less than 5.14, respectively.

For the compound `O=C(O)/C=C/C(=O)Nc1ccc(Oc2cccc(Oc3ccc(NC(=O)/C=C/C(=O)O)cc3)c2)cc1`, the values for the pIC50 in experiment [5], in experiment [6] and in experiment [8] were 5.91, 8.05 and 4.56, respectively. The pKi in experiment [5] is 6.51; in experiment [6], 8.14; in experiment [8], 4.87.
